Measurements as given in patent publication US20200163984A1, “USE OF ISOVALERYL SPIRAMYCIN I, II AND/OR III IN MANUFACTURING MEDICAMENT FOR TREATING AND/OR PREVENTING TUMOR, AND MEDICAMENT” (SHENYANG FUYANG PHARMACEUTICAL TECHNOLOGY CO., LTD., priority 2017, published 2020).

Legend:
[1] = test system: transplanted tumor of mouse H22 liver cancer; assay: Transplanted tumor of mouse H22 liver cancer
Description: The H22 cell strains cryopreserved in liquid nitrogen were resuscitated in Kunming mice. After 3 generations, the ascites of Kunming mice were taken and placed in a 50 ml centrifuge tube in which 10 ml of 0.9% normal saline was added, and then centrifuging was performed at 1000 rpm for 5 min at room temperature, and the obtained supernatant was removed. Then 10 ml of 0.9% normal saline was added to the tube to blow and mix well, and then the mixture was diluted to 5×10^6 live cells/ml with normal saline after counting. The tube was stored in ice water, and 75% ethanol was used to disinfect the skin under the right armpits of the mice. Each Kunming mouse was soon inoculated subcutaneously with 0.2 ml of the cells at the armpit of the right forelimb.
In the H22 liver cancer model, the mice inoculated with the tumor were randomly divided into groups with 10 mice in each group on the next day of inoculation. The groups included: a model control group, a positive drug cyclophosphamide control group (CTX, 26 mg/kg), isovaleryl spiramycin I groups with doses of 13, 26 and 52 mg/kg; isovaleryl spiramycin II groups with doses of 13, 26 and 52 mg/kg; isovaleryl spiramycin III groups with doses of 13, 26 and 52 mg/kg. Each group was continuously administered intragastrically for 7 days with a dose of 20 ml/kg.
The tumor-bearing mice were weighed and sacrificed the next day after the last administration. The subcutaneous tumors were dissected and weighed. The average tumor weight of each group is calculated, and the tumor inhibition rate is calculated.
Tumor inhibition rate=(1−T/C)×100%
T: average tumor weight of the drug-administered group; C: average tumor weight of the blank control group.

[2] = test system: transplanted tumor of human prostate cancer cell PC3; assay: PC3 transplanted tumor in nude mice; conditions: PC3; 30 mg/kg i.g. 30 days
Description: Then cell concentration was adjusted to 1×10^7/ml with matrigel, then each nude mouse was inoculated subcutaneously with 0.2 ml of cells at its right armpit and recorded as the first day of inoculation. When the tumor grows to be greater than or equal to 100 mm^3, the mice were randomly divided into 11 groups with 6 mice in each group: a model group, a cyclophosphamide group, isovaleryl spiramycin I groups with doses of 25, 50 and 100 mg/kg, isovaleryl spiramycin II groups with doses of 25, 50 and 100 mg/kg, and isovaleryl spiramycin III groups with doses of 25, 50 and 100 mg/kg. Each group was continuously administered intragastrically for 30 days with a dose of 20 ml/kg. The mice were sacrificed the next day after drug withdrawal and the indicators were tested. The long diameter and short diameter of the tumor, and the body weight of each mouse were recorded every 3 days from drug administration to nude mouse sacrifice.
The body weight of the nude mice and the long diameter (a) and short diameter (b) of the transplanted tumor were measured every 3 days, and the tumor volume (v), relative tumor volume (RTV) and relative tumor proliferation rate (T/C) are calculated respectively according to the following formulas, wherein V=a×b^2/2; RTV=V/V0 (V0 is the tumor volume before administration, V is the tumor volume before sacrifice), and T/C (%)=treatment group RTV/model control group RTV×100%.
Each mouse was weighed and sacrificed. After the tumor was completely stripped off from the body of the mouse, the non-tumor tissues such as blood stains and fat were removed to weigh the tumor and calculate the tumor growth inhibition rate. The average tumor weight of each group of mice is used as an indicator of efficacy. Tumor growth inhibition rate (%)=(1−the average tumor weight of the treatment group/the average tumor weight of the model group)×100%.

## O=P1(N(CCCl)CCCl)NCCCO1 (stereo not drawn) [Cyclophosphamide, cyclophosphamide, reference compound]
[1]; H22, CTX 26 mg/kg i.g. 7 days
  weight compared with the normal control group: slight decrease
[1]; Kunming mouse H22 liver cancer, CTX 26 mg/kg i.g. 7 days
  tumor inhibition rate: 73.03%
[1]; dose 26 mg/kg
  Inhibition Rate (%): 73.03%
  Tumor: 0.41 ± 0.27 g
[1]; dose 26 mg/kg, d 1
  Body Weight (g) (d1): 23.72 ± 1.79 g
[1]; dose 26 mg/kg, d 7
  Body Weight (g) (d 7): 23.68 ± 1.32 g
[1]; dose 30 mg/kg
  Relative Tumor Proliferation Rate (T/C): 28.78
  Relative Tumor Volume (RTV): 2.86 ± 1.44
[1]; dose 30 mg/kg, d 1
  Tumor Volume (mm3) (d 1): 119.60 ± 31.11 mm3
[1]; dose 30 mg/kg, d 30
  Tumor Volume (mm3) (d30): 307.34 ± 79.91 mm3
[2]
  Body Weight (d 1): 21.57 ± 0.75 g
  Body Weight (d 30): 16.43 ± 0.78 g
  Inhibition Rate (tumor growth inhibition rate): 70.03%
  Relative Tumor Proliferation Rate (T/C): 29.33%
  Relative Tumor Volume (RTV): 5.73 ± 2.23
  Tumor Volume (d 1): 155.36 ± 34.96 mm3
  Tumor Volume (d 30): 834.50 ± 135.35 mm3
  Tumor Weight: 0.56 ± 0.17 g
